The numbers were not newly measured in patent publication US20160296627A1, “INTRACAMERAL IMPLANT FOR TREATMENT OF AN OCULAR CONDITION” (Envisia Therapeutics Inc., priority 2013, published 2016), which cites them from elsewhere.

Usually EC50 stands for the concentration needed to bring the measured effect to its halfway point.

Sequence of Cloned Human Ciliary Body FP Prostaglandin Receptor (P43088 whole entry): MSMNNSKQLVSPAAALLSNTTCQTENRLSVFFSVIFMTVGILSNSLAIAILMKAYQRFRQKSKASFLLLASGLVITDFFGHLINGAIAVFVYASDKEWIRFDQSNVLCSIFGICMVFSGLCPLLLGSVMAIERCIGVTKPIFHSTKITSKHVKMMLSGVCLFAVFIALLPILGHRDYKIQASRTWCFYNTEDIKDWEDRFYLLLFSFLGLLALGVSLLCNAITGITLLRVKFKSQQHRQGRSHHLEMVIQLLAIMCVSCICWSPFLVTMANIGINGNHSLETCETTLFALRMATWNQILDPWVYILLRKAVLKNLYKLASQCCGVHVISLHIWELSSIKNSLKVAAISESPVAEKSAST

The data set concerns the target Cloned Human Ciliary Body FP Prostaglandin Receptor (Homo sapiens, UniProt P43088). The note with it: Sharif et al. 2002, read-out: Functional Potency, EC50.
As to `O=C(O)CCC/C=C\C[C@@H]1[C@@H](/C=C/[C@@H](O)CCc2ccccc2)[C@H](O)C[C@@H]1O` [Bimatoprost acid], the EC50 is 5.8 nM.
Regarding `CCNC(=O)CCC/C=C\C[C@@H]1[C@@H](/C=C/[C@@H](O)CCc2ccccc2)[C@H](O)C[C@@H]1O` [Bimatoprost], the EC50 was 694 nM.
Turning to `O=C(O)CCC/C=C\C[C@@H]1[C@@H](CC[C@@H](O)CCc2ccccc2)[C@H](O)C[C@@H]1O` [Latanoprost acid], the half-maximal effective concentration (EC50) was 54.6 nM.
Consider `CC(C)OC(=O)CCC/C=C\C[C@@H]1[C@@H](CC[C@@H](O)CCc2ccccc2)[C@H](O)C[C@@H]1O` [Latanoprost], for which the EC50 is 126 nM.
Consider `O=C(O)CCCC=CCC1C(O)CC(O)C1C=CC(O)COc1cccc(C(F)(F)F)c1` (stereo not drawn) [Travoprost acid], for which the concentration giving a half-maximal response (EC50) is 3.2 nM.
Consider `CC(C)OC(=O)CCC/C=C\C[C@@H]1[C@@H](/C=C/[C@@H](O)COc2cccc(C(F)(F)F)c2)[C@H](O)C[C@@H]1O` [Travoprost, propan-2-yl 7-[3,5-dihydroxy-2-[3-hydroxy-4-[3-(trifluoromethyl)phenoxy]-but-1-enyl]-cyclopentyl]hept-5-enoate], for which the EC50 was 42.3 nM.
